“And” between values parts separate entries of the source, which are not always exact repeats. Equal values may be shown once. Inconclusive results and toxic doses are left out.
System: CD2F1 mice, L1210 leukemia ip, survival T/C
Assay: NCI In Vivo Anticancer Drug Screen. Data for tumor model L1210 Leukemia (intraperitoneal) in CD2F1 (CDF1) mice
Conditions: endpoint: mean survival time, higher = longer survival
Summary of the method: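 Activity against a transplanted murine tumor was judged by comparing the compound group with a vehicle group. The outcome in the treated animals was divided by that in the controls.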

[1] = dose: 100.0 mg/kg/injection, schedule: Q04DX003 (ip), vehicle: saline with Tween-80

CCCCc1nc2c(O)ccc(O)c2nc1C
T/C (dose: 18.75 mg/kg/injection, schedule: Q01DX009 (ip), vehicle: other): 96 % of control
T/C (dose: 37.5 mg/kg/injection, schedule: Q01DX009 (ip), vehicle: other): 94 % of control
T/C (dose: 75.0 mg/kg/injection, schedule: Q01DX009 (ip), vehicle: other): 90 % of control

C=C1C(=O)O[C@@H]2/C=C(/C)[C@@]3(O)C=C[C@](C)(C[C@@H](OC(=O)/C(=C\C)COC(C)=O)[C@@H]12)O3
T/C (dose: 6.0 mg/kg/injection, schedule: Q01DX009 (ip), vehicle: saline with Tween-80): 88 % of control
T/C (dose: 8.0 mg/kg/injection, schedule: Q01DX009 (ip), vehicle: saline with Tween-80): 94 % of control
T/C (dose: 12.0 mg/kg/injection, schedule: Q01DX009 (ip), vehicle: saline with Tween-80): 94 % of control
T/C (dose: 18.0 mg/kg/injection, schedule: Q01DX009 (ip), vehicle: saline with Tween-80): 98 % of control
T/C (dose: 27.0 mg/kg/injection, schedule: Q01DX009 (ip), vehicle: saline with Tween-80): 93 % of control

N#CC(c1ccccc1)N(c1ccc(NS(=O)(=O)c2ccccc2)cc1)S(=O)(=O)c1ccccc1 (centres undefined)
T/C (dose: 100.0 mg/kg/injection, schedule: Q01DX001 (ip), vehicle: saline with Tween-80): 93 % of control
T/C (dose: 200.0 mg/kg/injection, schedule: Q01DX001 (ip), vehicle: saline with Tween-80): 96 % of control
T/C (dose: 400.0 mg/kg/injection, schedule: Q01DX001 (ip), vehicle: saline with Tween-80): 89 % of control

CC[n+]1ccc(Nc2ccc(NC(=O)c3ccc(Nc4cc[n+](CC)c5ccc([N+](=O)[O-])cc45)cc3)cc2)cc1
T/C (dose: 2.0 mg/kg/injection, schedule: Q01DX009 (ip), vehicle: saline sonified): 105 % of control
T/C (dose: 4.0 mg/kg/injection, schedule: Q01DX009 (ip), vehicle: saline sonified): 108 % of control
T/C (dose: 8.0 mg/kg/injection, schedule: Q01DX009 (ip), vehicle: saline sonified): 123 % of control
T/C (dose: 11.0 mg/kg/injection, schedule: Q01DX009 (ip), vehicle: saline): 119 % of control
T/C (dose: 25.0 mg/kg/injection, schedule: Q01DX009 (ip), vehicle: saline): 162 % of control
T/C (dose: 37.5 mg/kg/injection, schedule: Q01DX009 (ip), vehicle: saline): 203 % of control

O=S(=O)(O)O
T/C (dose: 100.0 mg/kg/injection, schedule: Q01DX009 (ip), vehicle: saline sonified): 100 % of control
T/C [1]: 96 % of control
T/C (dose: 200.0 mg/kg/injection, schedule: Q01DX009 (ip), vehicle: saline sonified): 97 % of control
T/C (dose: 400.0 mg/kg/injection, schedule: Q01DX009 (ip), vehicle: saline sonified): 97 % of control

c1ccc(N=C2SCCS2)cc1
T/C (dose: 3.13 mg/kg/injection, schedule: Q01DX001 (ip), vehicle: Klucel (hydroxypropylcellulose) (HPC)): 93 % of control
T/C (dose: 6.25 mg/kg/injection, schedule: Q01DX001 (ip), vehicle: Klucel (hydroxypropylcellulose) (HPC)): 97 % of control
T/C (dose: 12.5 mg/kg/injection, schedule: Q01DX001 (ip), vehicle: Klucel (hydroxypropylcellulose) (HPC)): 108 % of control

CCOC(=O)C1(C(=O)OCC)CCC(O)N1C(=O)Cc1ccccc1[N+](=O)[O-] (centres undefined)
T/C (dose: 100.0 mg/kg/injection, schedule: Q01DX009 (ip), vehicle: Klucel (hydroxypropylcellulose) (HPC)): 101 % of control
T/C (dose: 200.0 mg/kg/injection, schedule: Q01DX009 (ip), vehicle: Klucel (hydroxypropylcellulose) (HPC)): 97 % of control

O=C(O)CCC1(CCC(=O)O)OCCO1.[Ag]
T/C (dose: 9.5 mg/kg/injection, schedule: Q01DX009 (ip), vehicle: saline sonified): 92 % of control
T/C (dose: 18.75 mg/kg/injection, schedule: Q01DX009 (ip), vehicle: saline with Tween-80): 92 % of control
T/C (dose: 19.0 mg/kg/injection, schedule: Q01DX009 (ip), vehicle: saline sonified): 95 % of control
T/C (dose: 37.5 mg/kg/injection, schedule: Q01DX009 (ip), vehicle: saline with Tween-80): 92 % of control
T/C (dose: 38.0 mg/kg/injection, schedule: Q01DX009 (ip), vehicle: saline sonified): 95 % of control

CCOC(=O)Cc1nnc2ncnc(N)c2n1
T/C (dose: 100.0 mg/kg/injection, schedule: Q01DX001 (ip), vehicle: other): 101 % of control
T/C (dose: 200.0 mg/kg/injection, schedule: Q01DX001 (ip), vehicle: other): 103 % of control
T/C (dose: 400.0 mg/kg/injection, schedule: Q01DX001 (ip), vehicle: other): 98 % of control

CCOC(=O)C(N)CSSCC(N)C(=O)OCC (centres undefined)
T/C (dose: 100.0 mg/kg/injection, schedule: Q04DX003 (ip), vehicle: saline): 100 % of control
T/C (dose: 200.0 mg/kg/injection, schedule: Q04DX003 (ip), vehicle: saline): 102 % of control
T/C (dose: 400.0 mg/kg/injection, schedule: Q04DX003 (ip), vehicle: saline): 97 % of control

NC1(C(=O)O)CCCC1
T/C (dose: 50.0 mg/kg/injection, schedule: Q01DX009 (ip), vehicle: saline): 98 % of control and 110 % of control
T/C (dose: 50.0 mg/kg/injection, schedule: Q03DX003 (ip), vehicle: saline): 110 % of control
T/C (dose: 50.0 mg/kg/injection, schedule: Q04DX003 (ip), vehicle: saline): 96 % of control
T/C (dose: 100.0 mg/kg/injection, schedule: Q03DX003 (ip), vehicle: saline): 98 % of control
T/C (dose: 200.0 mg/kg/injection, schedule: Q01DX009 (ip), vehicle: saline): 92 % of control and 110 % of control

O=c1oc(-c2ccc3c(c2)OCO3)nc2ccccc12
T/C [1]: 91 % of control
T/C (dose: 200.0 mg/kg/injection, schedule: Q04DX003 (ip), vehicle: saline with Tween-80): 87 % of control
